Results on two compounds are retold here after US12577247B2 (BUGWORKS RESEARCH, INC., priority 2021, dated 2026).

Molecules are shown by their SMILES. Read-outs that look alike come from different tables or passages of the source.

For experiment [1], the target named is T1, A2A receptor (Homo sapiens, UniProt P29274).
T1 construct: host or cells: HEK-293
As to the kind of experiment: A2aR antagonism IC50, cAMP TR-FRET in HEK-293 cells, high concentration of adenosine (30 μM).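 Also: compounds added 10 min before adenosine, then 30 min stimulation at room temperature in buffer with 100 µM rolipram and 30 µM EHNA, signal read 1 h after detection reagents.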 It is filed as cell-based. The note with it: HEK-293 cells expressing A2A receptor; agonist adenosine 30 μM; 2% HSA; inhibition of cAMP; read-out: A2AR IC50 (nM) (@30 μM Adenosine).

Experiment [2] concerns the target T1, A2A receptor. The experiment is described as follows: A2aR antagonism IC50, cAMP TR-FRET (Lance Ultra) in HEK-293 cells, NECA as agonist.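 Also: compounds tested from 10 µM down to 0.08 nM in buffer with Rolipram at room temperature, TR-FRET cAMP signal read 1 h after adding Eu-cAMP tracer and ULight anti-cAMP.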 It is filed as cell-based. Conditions: A2AR IC50 (nM) (@5 nM NECA), HEK-293 cells expressing A2A receptor; agonist NECA 5 nM (EC90); inhibition of cAMP.
The target in experiment [3] is T2, A2B receptor (Homo sapiens, UniProt P29275).
T2 sequence (P29275 1-332): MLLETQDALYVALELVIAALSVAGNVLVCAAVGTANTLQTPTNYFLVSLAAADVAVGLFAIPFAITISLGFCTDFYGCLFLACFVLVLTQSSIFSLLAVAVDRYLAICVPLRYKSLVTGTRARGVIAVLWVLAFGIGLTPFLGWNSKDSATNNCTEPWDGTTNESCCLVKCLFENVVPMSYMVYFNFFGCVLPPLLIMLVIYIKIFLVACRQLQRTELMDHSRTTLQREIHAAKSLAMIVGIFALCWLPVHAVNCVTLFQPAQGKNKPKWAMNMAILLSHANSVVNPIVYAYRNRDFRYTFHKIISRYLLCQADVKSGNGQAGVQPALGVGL
The experiment is described as follows: A2bR antagonism IC50, cAMP TR-FRET (Lance Ultra) in HEK-293 cells, NECA as agonist. Type of experiment: cell-based. More on the design: host or cells: HEK-293. Conditions: HEK-293 cells expressing A2B receptor; agonist NECA 30 nM (EC90); inhibition of cAMP.
Text: Adenosine A2A receptors and Adenosine A2B receptors induce the production of cAMP when activated/stimulated by an agonist like adenosine or 5′-(N-Ethylcarboxamido) adenosine (NECA). A Time-Resolved Fluorescence Energy Transfer (TR-FRET) assay was used to show the inhibition of this cAMP production in HEK cells upon treatment with compounds of the Formula I of the present disclosure.
HEK-293 cells expressing A2A receptor (#ES-011-C) or A2B receptor (#ES 013-C) were obtained from PerkinElmer. Cells were maintained in DMEM medium supplemented with 10% FBS and 200 μg/mL of G418 at 37° C. and 5% CO2. The cells were cultured in antibiotic free medium for a period of 16-20 hours prior to the assay. All subsequent steps of the assay are performed at room temperature (22-24° C.). The cells were harvested at about 80% confluency by gentle flushing with PBS, recovered by centrifugation and resuspended in stimulation buffer at the concentration of 5.0×10^6 cells/mL.
The assays were conducted in a stimulation buffer containing 1×DMEM, 5 mM HEPES, 0.1% BSA stabilizer and 20-30 μM Rolipram. Serial dilutions of compounds were made in stimulation buffer to achieve a final concentration of high micromolar (10 μM to 0.08 nM) in the reaction volume of 10 μL. The total reaction volume was 10 μL (5 μL of cells, 2.5 μL of antagonist and 2.5 μL of agonist). The stimulation was ended, and the reaction completed by adding 5 μL of 4× Eu-cAMP tracer working solution and 5 μL of 4× ULight-anti-cAMP working solution. The TR-FRET signal was measured after 1-hour incubation using a Tecan M1000 reader.

Experiment [4] concerns the target T3, hERG potassium channel (Homo sapiens, UniProt Q12809).
T3 construct: a Chinese Hamster Ovary cell line stably expressing the full-length hERG potassium channel; expressed in transfected cells; host or cells: Chinese Hamster Ovary cell line
The experiment is described as follows: hERG inhibition assay, Qpatch HTX automated electrophysiology. Type of experiment: cell-based. Conditions: CHO cell line stably expressing hERG; whole-cell patch clamp; room temperature. How it is done: The representative compounds of formula I were tested for inhibition of the human ether a go-go related gene (hERG) K+ channel using Qpatch HTX automated electrophysiology. 6-Point concentration-response curves were generated using three-fold serial dilutions from a maximum final test concentration of […] and the results are presented in Table 3.
Compounds were solubilised to 100 mM in DMSO before dilution in HBPS to 100 μM. […] Electrophysiological recordings were made from a Chinese Hamster Ovary cell line stably expressing the full-length hERG potassium channel. Single cell ionic currents were measured in whole-cell patch clamp configuration at room temperature (21-23° C.) using the Qpatch HTX platform (Sophion). Intracellular solution contained (mM): 120 KF, 20 KCl, 10 EGTA, 10 HEPES and was buffered to pH 7.3. […] Cells were clamped at a holding potential of −80 mV. Cells were stepped to +20 mV for 2 s then −40 mV for 3 s before returning to the holding potential. This sweep was repeated 10 times at 10 s intervals. hERG currents were measured from the tail step and referenced to the holding current. Compounds were then incubated for 2 minutes prior to a second measurement of ion channel current using an identical pulse train.

For experiment [5], the system named is human Peripheral blood mononuclear cells (PBMCs). As to the kind of experiment: Cytokine restoration assay in human PBMCs (IL-2, TNF-α) under NECA. It is filed as cell-based. The note with it: PBMC, NECA 5 μM, anti CD3/28 Dynabeads, 48 hours. The text has this:
The ability of the invention compounds disclosed herein to restore the cytokines (IL-2 and TNF-α) release under adenosine agonist (NECA) environment evaluated using human Peripheral blood mononuclear cells (PBMCs). Peripheral blood was collected from healthy adult individuals in vacutainer tube. Peripheral blood mononuclear cells (PBMCs) were isolated via density gradient centrifugation, which uses Ficoll (Histopaque buffer) combined with short, low-speed centrifugation, to separate different cell populations. Diluted defibrinated blood was layered on a Ficoll and centrifuged at 1800 rpm for 20 minutes at 22° C. Differential migration of cells during centrifugation results in the formation of layers containing different cell types. The bottom layer contains erythrocytes. Remaining cells (i.e., lymphocytes, monocytes, and platelets) that are not dense enough to penetrate the Ficoll media layers (densities of 1.0770 g/ml), forms a buffy coat at the interface between the upper plasma layer and the Ficoll media layer. After carefully collected the buffy coat excess of platelets, Ficoll and plasma were removed by washing it with isotonic sterile phosphate buffered saline (PBS) and resulting cell pellet was resuspended in RPMI media with 5% FBS an P/S. The isolated PBMCs were allowed to be conditioned for an hour at 37° C. in a CO2 incubator. These cells were subsequently used for specific downstream assay. Isolated PBMC (3×10^5 cells/200 μl) were plated in 96 well microtiter plate in RPMI media with 5% FBS in presence of 100 units of penicillin plus 100 μg/ml streptomycin. NECA was added at a final concentration of 5 μM, control wells were maintained without NECA suppression (i.e., no NECA control). The assay plates were incubated at 37° C. for 4 hours in a CO2 incubator. Various concentrations of test compounds were added into respective wells in triplicates. Pre-washed anti CD3/28 Dynabeads (2.5 μL) was added for CD4 and CD8 + T-cell stimulation (to obtain a bead-to-cell ratio of 1:1). The assay plate was incubated at 37° C. in 5% CO2 and 20% ambient O2 maximum for 48 hours. At the end of 48 hours, the activated PBMC were harvested, and culture supernatants were used directly for further analysis. Forty-eight hours post treatment, 15 μL of cell-free supernatant was collected and assayed for secreted IL2 using the human Interleukin 2 (hIL2)—LANCE Ultra Detection Kit (Perkin Elmer). Similarly, level of soluble Tumor Necrosis Factor alpha (TNFα) was determined using human TNFα LANCE Ultra Detection Kit (Perkin Elmer). T-FRET signal was measured with Tecan spark multimode plate reader. Data was analyzed by graph-pad prism9. EC50 s of the compounds of Formula (I) in restoration of cytokine release under adenosine agonist from the human PBMCS are presented in Table 2

The target of experiment [6] is T2, A2B receptor. The experiment is described as follows: A2bR antagonism IC50, cAMP TR-FRET in HEK-293 cells, high concentration of adenosine (30 μM).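 Also: compounds preincubated 10 min with cells, then adenosine stimulation 30 min at room temperature in buffer with Rolipram 100 µM and EHNA 30 µM, TR-FRET read after 1 h.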 Conditions: A2BR IC50 (nM) (@30 μM Adenosine), HEK-293 cells expressing A2B receptor; agonist adenosine 30 μM; 2% HSA; inhibition of cAMP.
[7] abbreviates: read-out: IL-2 restoration EC50.
The mark [8] stands for this setting: read-out: TNF-α restoration EC50.

T1 sequence (P29274 whole entry): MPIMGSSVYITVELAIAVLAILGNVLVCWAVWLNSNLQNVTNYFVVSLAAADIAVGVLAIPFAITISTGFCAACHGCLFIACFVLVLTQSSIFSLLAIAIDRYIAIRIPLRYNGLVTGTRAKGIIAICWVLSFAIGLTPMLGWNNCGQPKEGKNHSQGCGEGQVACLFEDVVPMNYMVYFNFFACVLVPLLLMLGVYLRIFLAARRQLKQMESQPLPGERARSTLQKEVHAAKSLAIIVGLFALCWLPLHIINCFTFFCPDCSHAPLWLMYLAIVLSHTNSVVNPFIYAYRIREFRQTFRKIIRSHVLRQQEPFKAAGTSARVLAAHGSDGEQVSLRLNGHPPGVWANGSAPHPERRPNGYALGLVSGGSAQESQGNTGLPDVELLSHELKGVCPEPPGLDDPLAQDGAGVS
T3 sequence (Q12809 whole entry): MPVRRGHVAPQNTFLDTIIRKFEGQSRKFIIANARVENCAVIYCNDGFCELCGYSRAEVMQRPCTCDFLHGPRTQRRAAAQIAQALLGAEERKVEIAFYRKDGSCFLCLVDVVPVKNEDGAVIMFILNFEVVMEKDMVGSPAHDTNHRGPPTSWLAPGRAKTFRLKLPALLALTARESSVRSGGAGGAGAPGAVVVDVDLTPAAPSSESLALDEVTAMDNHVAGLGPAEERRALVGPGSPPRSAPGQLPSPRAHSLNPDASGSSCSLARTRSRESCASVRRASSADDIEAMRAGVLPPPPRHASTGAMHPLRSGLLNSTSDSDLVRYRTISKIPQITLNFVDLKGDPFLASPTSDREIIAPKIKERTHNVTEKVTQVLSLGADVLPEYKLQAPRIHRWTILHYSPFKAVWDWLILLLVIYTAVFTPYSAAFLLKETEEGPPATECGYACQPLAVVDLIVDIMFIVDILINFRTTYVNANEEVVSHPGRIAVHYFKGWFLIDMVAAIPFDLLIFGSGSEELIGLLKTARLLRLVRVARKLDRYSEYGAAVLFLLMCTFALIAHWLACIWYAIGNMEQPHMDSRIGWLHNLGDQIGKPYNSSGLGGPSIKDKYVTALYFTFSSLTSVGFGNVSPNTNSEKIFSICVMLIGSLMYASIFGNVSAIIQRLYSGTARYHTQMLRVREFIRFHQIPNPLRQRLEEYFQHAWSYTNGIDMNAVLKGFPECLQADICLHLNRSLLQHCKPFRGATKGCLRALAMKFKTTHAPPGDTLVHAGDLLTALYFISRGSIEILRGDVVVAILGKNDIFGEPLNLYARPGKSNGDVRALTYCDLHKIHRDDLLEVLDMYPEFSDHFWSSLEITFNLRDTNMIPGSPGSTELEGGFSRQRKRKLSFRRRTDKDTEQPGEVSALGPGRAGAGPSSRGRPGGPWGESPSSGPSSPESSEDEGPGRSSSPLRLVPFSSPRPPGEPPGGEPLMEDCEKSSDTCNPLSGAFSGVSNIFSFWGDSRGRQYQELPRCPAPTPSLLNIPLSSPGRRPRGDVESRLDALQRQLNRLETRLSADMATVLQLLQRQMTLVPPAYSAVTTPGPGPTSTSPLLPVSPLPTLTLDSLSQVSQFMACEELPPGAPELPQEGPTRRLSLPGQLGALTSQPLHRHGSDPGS

Turning to `CCc1c(C)nn2c(N)c(C#N)c(NCCc3ccn(C4CCC4CO)n3)nc12` (single isomer, unassigned; (-)) [Example 79, (−)-7-amino-3-ethyl-5-((2-(1-(2-(hydroxymethyl)cyclobutyl)-1H-pyrazol-3-yl)ethyl)amino)-2-methylpyrazolo[1,5-a]pyrimidine-6-carbonitrile], the half-inhibitory concentration (IC50) was 88 nM in experiment [1]; under 0.1 nM in experiment [2]; 2 nM in experiment [3]; over 100000 nM in experiment [4]; 586 nM in experiment [6]. The EC50 was 2.2 nM in experiment [5] (setting [7]) and 1.4 nM in experiment [5] (setting [8]).

Regarding `CCc1c(C)nn2c(N)c(C#N)c(NCCc3cccc(CCCO)n3)nc12` [Example 155, 7-amino-3-ethyl-5-((2-(6-(3-hydroxypropyl)pyridin-2-yl)ethyl)amino)-2-methylpyrazolo[1,5-a]pyrimidine-6-carbonitrile], the IC50 in experiment [1] is 181 nM; in experiment [4] it was over 100000 nM; in experiment [6], 429 nM. For the same compound, the EC50 was found to be 3.6 nM in experiment [5] (setting [7]) and 3.2 nM in experiment [5] (setting [8]).
